Measured values taken from ChEMBL document CHEMBL1799910, “Optimization of 1,2,3,4-tetrahydroacridin-9(10H)-ones as antimalarials utilizing structure-activity and structure-property relationships” (J Med Chem, 2011).
≈ marks a conversion by molar mass, not a printed value.

Assays:
J774 = assay: Cytotoxicity against mouse J774 cells after 72 hrs by Cell titer 96 aqueous one solution cell proliferation assay; assay type: cell-based; details: J774, 72 h
Plasmodium falciparum [1] = assay: Antimalarial activity against chloroquine, mefloquine, pyrimethamine and atovaquone-resistant Plasmodium falciparum TM90-C2B infected in human A positive erythrocytes after 72 hrs by SYBR Green I assay; assay type: functional, organism-based
Plasmodium falciparum [2] = assay: Antimalarial activity against chloroquine and pyrimethamine-resistant Plasmodium falciparum W2 infected in human A positive erythrocytes after 72 hrs by SYBR Green I assay; assay type: functional, organism-based; details: W2, 72 h
[3] = Partition coefficient, log D of the compound at pH 7.4 by HPLC analysis; details: octanol/water
[4] = Aqueous solubility of compound at pH 7.4 by HPLC analysis; details: buffer
[5] = Permeability of the compound by PAMPA method at pH 7.4; assay type: ADME; details: read-out: permeability
[6] = Cytotoxicity index, ratio of EC50 for mouse J774 cells to EC50 for chloroquine, mefloquine, pyrimethamine and atovaquone-resistant Plasmodium falciparum TM90-C2B; assay type: cell-based; details: read-out: Ratio EC50
Plasmodium falciparum [7] = assay: Resistance index, ratio of EC50 for chloroquine, mefloquine, pyrimethamine and atovaquone-resistant Plasmodium falciparum TM90-C2B to EC50 for chloroquine and pyrimethamine-resistant Plasmodium falciparum W2; assay type: functional

Row | SMILES | EC50 (J774) [µM] | EC50 (Plasmodium falciparum [1]) [µM] | EC50 (Plasmodium falciparum [2]) [µM] | logD [3] | solubility [4] [µM] | Papp [5] [×10⁻⁶ cm/s] | selectivity ratio [6] | Ratio EC50 (Plasmodium falciparum [7])
1 | COc1cccc2c(=O)c3c([nH]c12)CCCC3 | > 20 | 4.56 | 4.77 | 1.7 | 99 (≈ 22.7 µg/mL) | 16 | ≥ 100 | 0.95
2 | O=c1c2c([nH]c3ccc([N+](=O)[O-])cc13)CCCC2 | > 5 | 0.379 | 3.16 | 1.5 | 8 (≈ 1.95 µg/mL) | 6.9 | ≥ 100 | 0.12
3 | Oc1c2c(nc3ccc(Br)cc13)CCCC2 | > 2 | 0.0647 | 0.197 | 2.1 | 2 (≈ 0.556 µg/mL) | 63 | ≥ 100 | 0.32
4 | CC1(C)CCc2c([nH]c3cccc(Cl)c3c2=O)C1 | > 5 | 5.33 | 2.99 | 2.5 | 6 (≈ 1.57 µg/mL) | 103 | ≥ 100 | 1.78
5 | COc1ccc2[nH]c3c(c(=O)c2c1)CC(C)(C)CC3 | > 20 | > 9.72 | 8.4 | 2 | 38 (≈ 9.78 µg/mL) | 73 | ≥ 100 | >1.16
6 | O=c1c2c([nH]c3ccc(-c4ccncc4)cc13)CCSC2 | > 20 | 4.99 | 6.21 | 0.8 | 45 (≈ 13.2 µg/mL) | 15 | ≥ 100 | 0.8
7 | COc1cccc2[nH]c3c(c(=O)c12)CCCC3 | > 20 | 5.94 | 8.97 | 1.2 | 76 (≈ 17.4 µg/mL) | 17 | ≥ 100 | 0.66
8 | COc1cc2[nH]c3c(c(=O)c2cc1Cl)CCCC3 | > 10 | 0.0241 | 0.0306 | 2.2 | 17 (≈ 4.48 µg/mL) | 85 | ≥ 100 | 0.79
9 | COc1cc2c(=O)c3c([nH]c2cc1Cl)CCCC3 | > 20 | 0.0115 | 0.0352 | 1.3 | 33 (≈ 8.7 µg/mL) | 24 | ≥ 100 | 0.33
10 | O=c1c2c([nH]c3ccc(-c4ccc(COc5ccccc5)cc4)cc13)CCSC2 | > 1 | 0.706 | 0.0445 | 2.8 | 1 (≈ 0.4 µg/mL) | 7 | ≥ 100 | 15.9
11 | Cc1ccc2c(=O)c3c([nH]c2c1)CC(C)(C)CC3 | > 10 | 0.965 | 1.46 | 2.49 | 17 (≈ 4.1 µg/mL) | 53 | ≥ 100 | 0.66
12 | COc1ccc2c(=O)c3c([nH]c2c1)CCCCC3 | > 20 | 0.153 | 0.171 | 2.1 | 30 (≈ 7.3 µg/mL) | 39 | ≥ 100 | 0.89
13 | Cc1ccc2[nH]c3c(c(=O)c2c1)CCC(C)(C)C3 | > 2 | 0.319 | 0.587 | 2.4 | 4 (≈ 0.965 µg/mL) | 78 | ≥ 100 | 0.54
14 | CC1(C)CCc2[nH]c3ccccc3c(=O)c2C1 | > 20 | 0.295 | 0.421 | 1.8 | 35 (≈ 7.96 µg/mL) | 43 | ≥ 100 | 0.7
15 | CC(C)(C)c1ccc2[nH]c3c(c(=O)c2c1)CCCC3 | > 5 | 0.325 | 0.0787 | 2.8 | 5 (≈ 1.28 µg/mL) | 165 | ≥ 100 | 4.13
16 | O=c1c2c([nH]c3cc(Cl)c(Cl)cc13)CCCC2 | > 1 | 0.341 | 0.321 | 2.6 | 1 (≈ 0.268 µg/mL) | 180 | ≥ 100 | 1.06
17 | CCOC(=O)c1ccc2[nH]c3c(c(=O)c2c1)CCCC3 | > 5 | 0.0583 | 0.153 | 2.1 | 8 (≈ 2.17 µg/mL) | 63 | ≥ 100 | 0.38
18 | O=c1c2c([nH]c3ccc(-c4cccc(Oc5ccc(F)cc5)c4)cc13)CCSC2 | > 0.1 | 0.143 | 0.0409 | 2.8 | 0.3 (≈ 0.121 µg/mL) | 2 | ≥ 100 | 3.5
